Assay [1] concerns the target T1, PKG-1α (Homo sapiens, UniProt Q13976).
T1 construct: transfected with an expression plasmid containing a full length WT-PKG-1α cDNA; made in house; host or cells: HEK-293T (methods); the results paragraph b527 says PASMC
T1 sequence (Q13976 2-671): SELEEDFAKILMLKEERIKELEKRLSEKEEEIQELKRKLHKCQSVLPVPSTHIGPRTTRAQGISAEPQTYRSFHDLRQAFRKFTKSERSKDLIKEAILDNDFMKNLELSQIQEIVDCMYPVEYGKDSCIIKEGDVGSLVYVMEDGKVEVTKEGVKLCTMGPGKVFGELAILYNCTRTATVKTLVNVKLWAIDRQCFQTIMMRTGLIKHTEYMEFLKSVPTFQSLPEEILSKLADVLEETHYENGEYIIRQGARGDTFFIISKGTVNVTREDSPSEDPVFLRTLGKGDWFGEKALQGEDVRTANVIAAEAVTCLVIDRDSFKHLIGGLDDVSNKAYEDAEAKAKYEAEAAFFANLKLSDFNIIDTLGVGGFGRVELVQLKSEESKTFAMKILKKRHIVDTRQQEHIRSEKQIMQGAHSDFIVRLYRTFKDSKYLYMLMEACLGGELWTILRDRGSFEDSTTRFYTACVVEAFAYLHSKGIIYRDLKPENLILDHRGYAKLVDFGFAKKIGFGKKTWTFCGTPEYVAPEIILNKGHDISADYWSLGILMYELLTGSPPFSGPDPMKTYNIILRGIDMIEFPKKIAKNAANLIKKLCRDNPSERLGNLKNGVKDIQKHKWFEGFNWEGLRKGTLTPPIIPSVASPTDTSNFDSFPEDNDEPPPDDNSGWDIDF
Kind of assay: PKG-1α nitration (IP, 3-NT blot) in transfected HEK-293T cells. Format: cell-based. To be noted: HEK-293T expressing WT-PKG-1α, SIN-1 500 μM 30 min. How it is done:
(§1) Cells were homogenized in 3× weight/volume of IP buffer (25 mM Hepes, pH 7.5, 150 mM NaCl, 1% NP-40, 10 mM MgCl2, 1 mM EDTA, 2% glycerol, supplemented with protease inhibitor). The homogenates were then centrifuged at 20,000 g at 4° C. for 20 min, the supernatant was collected, and the protein concentration was quantified by the Bio-Rad DC Protein Assay. To 1000 μg of total protein, 4 μg of antibody against PKG-1α was added; the volume was brought to 1 ml with IP buffer, and the mixture was nutated at 4° C. overnight. To precipitate the bound protein, 30 μl of protein G plus agarose suspension (EMD biosciences, Inc., San Diego, Calif.) was added, and the samples were nutated for 2 h at 4° C. To collect the bead-bound antibody, the samples were then centrifuged at 2000 g for 5 min at 4° C., the supernatant was removed, and the beads were washed 3× with 500 μl of IP buffer. […]
(§2) To determine the role of tyrosine 247 and tyrosine 425 in mediating the nitration dependent inhibition of PKG-1α kinase activity, Y247F- and Y425F-PKG-1α mutants were generated and expressed in HEK-293T cells. […] Protein extracts were immunoprecipitated using an antibody raised against PKG-1α and the level of nitrated PKG-1α determined by probing the membranes with an antiserum raised against 3-NT. […]

The subject of assay [2] is PKG-1α. The description is as above. Format: cell-based, human. To be noted: HEK-293T expressing Y247F- or Y425F-PKG-1α, SIN-1 500 μM 30 min. The protocol: as §1, §2
In assay [3] the target is T1, PKG-1α. Kind of assay: 3-NT-Y247-PKG-1α immunoblot in transfected PASMC. To be noted: PASMC transfected with WT-PKG-1α, SIN-1 500 μM 30 min. Format: cell-based. How it is done: The 3-NT Y247 PKG-1α specific antibody was raised against a synthetic peptide antigen ENGE(Y-NO2)[…], where Y-NO2 represent 3-nitrotyrosine. The peptide was used to immunize rabbits. Tyrosine nitration-reactive rabbit antiserum was first purified by affinity chromatography. Further purification was carried out using immunodepletion by non-nitrated peptide […] resin chromatography, after which the resulting eluate was tested for antibody specificity by immunoblotting and immune-histochemistry with fluorescent staining.
Cells were prepared as previously described (Sud, N., et al., American Journal of Physiology 293, L1444-1453 (2007); Sharma, S., et al., American Journal of Physiology 294, L46-56 (2008)). Briefly, the cellular protein extracts were prepared by homogenizing the cells in lysis buffer (50 mM Tris-HCl, pH 7.6, 0.5% Triton X-100, and 20% glycerol) containing Halt protease inhibitor cocktail (Pierce, Rockford, Ill.). The extracts were then clarified by centrifugation (20,000 g for 20 min at 4° C.). […] Reactive bands were visualized using chemi-luminescence (Pierce Laboratories, Rockford, Ill.) on a Kodak 440CF image station. The band intensity was quantified using Kodak 1D image processing software. […]
PASMC were transiently transfected with expression plasmids containing WT- or Y247FPKG-1α for 48 h. […] The fluorescent-stained sections were analyzed using confocal microscopy.
(In general: A western blot detects proteins with antibodies after separation by electrophoresis.)

For the substance “3-morpholinosydnonimine N-ethylcarbamide [SIN-1]”, on PKG-1α [1], the “Nitration of WT-PKG-1α” value is listed as “significantly increased”. Also, the “Nitration levels of Y247F- or Y425F-PKG-1α” value in the assay on PKG-1α [2] is given as “no significant increases”. Moreover, the “WT-PKG-1α nitration (3-NT-Y247-PKG-1α antibody)” value at PKG-1α [3] was “significantly increased”.

The record behind these values is patent US9447157B2, “Nitration shielding peptides and methods of use thereof” (Augusta University Research Institute, Inc., priority 2013, dated 2016).
